# Source: patent US20210255193A1, “LYSINE REACTIVE PROBES AND USES THEREOF” (The Scripps Research Institute, priority 2017, published 2021)
# Experiments:
# [1] = target: T1, PSMC6 26S protease regulatory subunit 10B (Homo sapiens, UniProt P62333); test: competitive isoTOP-ABPP; type: binding; conditions: for isoTOP-ABPP reactivity ratio at lysine P62333_K72 / isoTOP-ABPP ratio (R) at liganded lysine P62333_K72: 50 uM, in vitro; for isoTOP-ABPP reactivity ratio at lysine P62333_K72: 231 sol; for isoTOP-ABPP ratio (R) at liganded lysine P62333_K72: sol, 231
# T1 construct: isoTOP-ABPP experiments performed in cell lysates (in vitro); endogenous in cells; host or cells: soluble proteome of human cancer cell lines (MDA-MB-231, Ramos, Jurkat)
# In short: (§1)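 Fragments at 50 μM (activated esters) or 100 μM (guanidinylating agents) were incubated with 0.5 ml lysate before probe labeling. After 0.1 mM STP-alkyne for 1 h, samples were clicked to isotopically distinct TEV tags, and R taken as DMSO-over-compound MS1 peak-area ratio.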
# [2] = target: T2, EEF1A1 Elongation factor 1-alpha 1 (Homo sapiens, UniProt P68104); test: competitive isoTOP-ABPP; type: binding; conditions: for isoTOP-ABPP reactivity ratio at lysine P68104_K84 / isoTOP-ABPP ratio (R) at liganded lysine P68104_K84: 50 uM, in vitro; for isoTOP-ABPP reactivity ratio at lysine P68104_K84: 231 sol; for isoTOP-ABPP ratio (R) at liganded lysine P68104_K84: sol, 231; for isoTOP-ABPP ratio, lysine P68104_K84: 100 uM_231_sol_in vitro
# T2 construct: isoTOP-ABPP experiments performed in cell lysates (in vitro); endogenous in cells; host or cells: soluble proteome of human cancer cell lines (MDA-MB-231, Ramos, Jurkat)
# T2 sequence (P68104 1-462): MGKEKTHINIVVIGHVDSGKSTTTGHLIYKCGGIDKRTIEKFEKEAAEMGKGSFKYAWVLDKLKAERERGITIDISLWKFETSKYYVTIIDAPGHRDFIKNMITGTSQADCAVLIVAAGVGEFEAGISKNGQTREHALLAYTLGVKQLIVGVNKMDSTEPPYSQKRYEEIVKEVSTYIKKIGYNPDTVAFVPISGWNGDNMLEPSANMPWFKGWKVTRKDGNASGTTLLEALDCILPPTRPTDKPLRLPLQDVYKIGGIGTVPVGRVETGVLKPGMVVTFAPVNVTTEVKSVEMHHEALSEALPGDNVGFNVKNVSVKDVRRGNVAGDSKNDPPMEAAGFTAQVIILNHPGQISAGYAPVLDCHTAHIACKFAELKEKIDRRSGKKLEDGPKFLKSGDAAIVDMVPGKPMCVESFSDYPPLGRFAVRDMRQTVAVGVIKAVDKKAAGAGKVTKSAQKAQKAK
# In short: as §1
compound,measurement,setting,value
"CCn1cc(C(=O)Oc2c(F)c(F)c(F)c(F)c2F)c(=O)c2ccc(C)nc21 [fragment 28, Pentafluorophenyl 1-ethyl-7-methyl-4-oxo-1,4-dihydro-1,8-naphthyridine-3-carboxylate]",isoTOP-ABPP reactivity ratio at lysine P62333_K72,[1],20.0
"O=C(CCc1cn(-c2ccccc2)nc1-c1ccccc1)Oc1ccc([N+](=O)[O-])cc1[N+](=O)[O-] [fragment 29, 2,4-Dinitrophenyl 3-(1,3-diphenyl-1H-pyrazol-4-yl)propanoate]",isoTOP-ABPP reactivity ratio at lysine P68104_K84,[2],20.0
same,isoTOP-ABPP reactivity ratio at lysine P62333_K72,[1],20.0
"O=C(Oc1ccc([N+](=O)[O-])cc1[N+](=O)[O-])C(c1ccccc1)c1ccccc1 [fragment 30, 2,4-Dinitrophenyl 2,2-diphenylacetate]",isoTOP-ABPP reactivity ratio at lysine P68104_K84,[2],0.5
"O=C(Oc1ccc([N+](=O)[O-])cc1[N+](=O)[O-])c1cc(C(F)(F)F)cc(C(F)(F)F)c1 [fragment 31, 2,4-Dinitrophenyl 3,5-bis(trifluoromethyl)benzoate]",isoTOP-ABPP reactivity ratio at lysine P68104_K84,[2],0.4
"Cn1cc(CC(=O)Oc2ccc([N+](=O)[O-])cc2[N+](=O)[O-])c2ccccc21 [fragment 32, 2,4-Dinitrophenyl 2-(1-methyl-1H-indol-3-yl)acetate]",isoTOP-ABPP reactivity ratio at lysine P68104_K84,[2],0.4
same,isoTOP-ABPP reactivity ratio at lysine P62333_K72,[1],1.4
"O=C(CCc1coc2cc(F)ccc2c1=O)Oc1ccc([N+](=O)[O-])cc1[N+](=O)[O-] [fragment 36, 2,4-Dinitrophenyl 3-(7-fluoro-4-oxo-4H-chromen-3-yl)propanoate]",isoTOP-ABPP ratio (R) at liganded lysine P68104_K84,[2],0.7
"O=C(Oc1ccc([N+](=O)[O-])cc1[N+](=O)[O-])c1ccc(-c2ccccc2)cc1 [fragment 37, 2,4-Dinitrophenyl [1,1′-biphenyl]-4-carboxylate]",isoTOP-ABPP ratio (R) at liganded lysine P68104_K84,[2],20.0
same,isoTOP-ABPP ratio (R) at liganded lysine P62333_K72,[1],0.9
"O=C(Oc1ccc([N+](=O)[O-])cc1[N+](=O)[O-])c1ccc(Oc2ccccc2)cc1 [fragment 39, 2,4-Dinitrophenyl 4-phenoxybenzoate]",isoTOP-ABPP ratio (R) at liganded lysine P62333_K72,[1],1.1
"CC(C)(C)OC(=O)NCCCC(=O)Oc1ccc([N+](=O)[O-])cc1[N+](=O)[O-] [fragment 41, 2,4-Dinitrophenyl 4-((tert-butoxycarbonyl)amino)butanoate]",isoTOP-ABPP ratio (R) at liganded lysine P62333_K72,[1],1.2
"CC(=O)Oc1ccc([N+](=O)[O-])cc1[N+](=O)[O-] [fragment 43, 2,4-Dinitrophenyl acetate]",isoTOP-ABPP ratio (R) at liganded lysine P68104_K84,[2],0.7
same,isoTOP-ABPP ratio (R) at liganded lysine P62333_K72,[1],1.9
"O=C(ON1C(=O)CCC1=O)c1cc(C(F)(F)F)cc(C(F)(F)F)c1 [fragment 46, 3,5-Bis(trifluoromethyl)benzoic acid NHS ester]","isoTOP-ABPP ratio, lysine P62333_K72",[1]; 50 uM_231_sol_in vitro,0.9
"COC(=O)NC(=NC(=O)OCC1c2ccccc2-c2ccccc21)n1cccn1 [fragment 49, N-Methoxycarbonyl-N′-9-fluorenylmethoxycarbonyl-pyrazole-1-carboxamidine]","isoTOP-ABPP ratio, lysine P68104_K84",[2],1.2
"CC(C)(C)OC(=O)N=C(NC(=O)OC(C)(C)C)n1cccn1 [fragment 50, reference compound]","isoTOP-ABPP ratio, lysine P68104_K84",[2],1.3
same,"isoTOP-ABPP ratio, lysine P62333_K72",[1]; 100 uM_231_sol_in vitro,1.3
